Reference: PubChem BioAssay (NCI)
Where “and” joins values, the source holds several entries; their conditions need not be identical. Equal values may be shown once.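 Protocol summary: plate cells (96-well), add compound at 5 concentrations, incubate 48 h, interpolate endpoints linearly. Here, GI50 denotes the concentration required for 50% inhibition of growth. TGI: concentration producing complete growth inhibition.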

test system: MDA-MB-468 breast; test: NCI anticancer screen, dose series, 48 h

Row | Structure (SMILES) | GI50 | TGI
1 | Clc1ccccc1CNc1c2ccccc2nc2ccccc12 | 1.12 µM | 3.04 µM
2 | C=C1C(=O)O[C@H]2[C@H]1CC/C(COC(=O)C(C)c1ccc(CC(C)C)cc1)=C\CC[C@@]1(C)O[C@@H]21 (some centres not stated) | 1.76 µM | 3.79 µM
3 | C/C(=C\c1cc(C(F)(F)F)n(-c2ccc(N)cc2)n1)[C@@H]1C[C@@H]2O[C@]2(C)CCC[C@H](C)[C@H](O)[C@@H](C)C(=O)C(C)(C)[C@@H](O)CC(=O)O1 | 0.0336 µM | 0.231 µM
4 | COc1ccc2c(c1)C(=O)/C(=C/c1ccc([N+](=O)[O-])o1)O2 | 0.818 µM | 2.56 µM
5 | C=C(CO)[C@@H]1CC[C@]2(COC3CCCCO3)CC[C@]3(C)[C@H](CC[C@@H]4[C@@]5(C)C=C(C=O)C(=O)C(C)(C)[C@@H]5CC[C@]43C)[C@@H]12 (some centres not stated) | 0.244 µM | 0.665 µM
6 | C[N+](C)(C)CC(=O)N/N=C(\C(=O)NC1=C(Cl)C(=O)c2ccccc2C1=O)C(C#N)c1nc(-c2ccc([N+](=O)[O-])cc2)cs1 (configuration not stated) | 3.89 µM | 16 µM
7 | CC1(N)CCN(c2cnc(-c3cccc(Cl)c3Cl)c(N)n2)CC1 | 2.58 µM | 17.2 µM
8 | COc1cc(-c2csc(NC(=O)Nc3ccc(C(F)(F)F)cc3)n2)cc(OC)c1OC | 1.72 µM | 5.71 µM
9 | CCCN(CCC)c1ccc(/C=N/NC(=O)c2cccnc2)c(OC)c1 | 6.22 µM | 58.9 µM
10 | Oc1ccc(C2c3ccccc3Oc3ccccc32)c2cccnc12 | 0.644 µM | 4.53 µM
11 | Cc1cc(-c2ccccn2)cc(C)c1/C=C/c1cncc(-c2nn[nH]n2)c1 | > 25 µM | > 25 µM
12 | NS(=O)(=O)NCCNc1nonc1C(=Nc1ccc(F)c(Br)c1)NO | 23.5 µM | 76.5 µM
13 | O=[N+]([O-])c1cc(C(F)(F)F)ccc1Sc1ccc(C(F)(F)F)cc1[N+](=O)[O-] | 3.67 µM | > 100 µM
14 | CC(CN(C)C)Oc1ccccc1NC1=C(Cl)C(=O)C(Nc2ccccc2OC(C)CN(C)C)=C(Cl)C1=O (configuration not stated) | 0.163 µM | 0.328 µM
15 | Cc1cc(N2CCOCC2)nc(N(CCCNc2ccnc3cc(Cl)ccc23)Cc2ccco2)n1 | 2.21 µM | 7.33 µM
16 | O=C(/C=C/C12c3ccccc3C(c3ccccc31)C1C(=O)NC(=O)C12)c1ccc(F)cc1 (configuration not stated) | 1.99 µM | 4.1 µM
17 | CCn1c(-c2nonc2N)nc2c(C#CC(C)(C)O)ncc(OC[C@H]3CCCNC3)c21 | 0.0872 µM | 18.9 µM
18 | COc1cc2nccc(Oc3ccc(NC(=O)Nc4cc(C)on4)c(Cl)c3)c2cc1OC | 2.34 µM and 2.93 µM | 8.09 µM and > 10 µM
19 | Cc1ccc(NC(=O)CSc2nnc3n(Cc4ccccc4)c(=O)c4c(C)c(C(N)=O)sc4n23)cc1 | 18.6 µM | > 100 µM
20 | Cc1ccc(NS(=O)(=O)c2cccc(C#N)c2)c2[nH]cc(C#N)c12 | 4.44 µM | 58.2 µM
21 | Cc1ccc(C(=O)/C(=C\c2ccc([N+](=O)[O-])cc2)S(=O)Cc2ccc(Cl)cc2)cc1 (configuration not stated) | 1.74 µM | 3.44 µM
